Values joined by “and” are separate entries in the source; they are usually repeats but may differ in a detail not shown here. Equal values may be shown once. Read-outs that look alike come from different tables or passages of the source. Bridge positions count the residues as written; N and C are the ends. Square brackets hold non-standard residues; d marks the D form. Peptide text beside a SMILES is read from it. hArg = N=C(N)NCCCC[C@H](N)C(=O)O; Mpa = O=C(O)CCS
How the values were obtained:
[1] = biological target: T1, HEK293 cells stably expressing normal human αVβ3 (Homo sapiens, UniProt P05106+P06756); test: αVβ3-mediated cell adhesion to vitronectin; format: cell-based; conditions: HEK293, n=4
T1 construct: expressed in transfected cells; host or cells: HEK293
T1 sequence (P06756 31-889 limits assumed): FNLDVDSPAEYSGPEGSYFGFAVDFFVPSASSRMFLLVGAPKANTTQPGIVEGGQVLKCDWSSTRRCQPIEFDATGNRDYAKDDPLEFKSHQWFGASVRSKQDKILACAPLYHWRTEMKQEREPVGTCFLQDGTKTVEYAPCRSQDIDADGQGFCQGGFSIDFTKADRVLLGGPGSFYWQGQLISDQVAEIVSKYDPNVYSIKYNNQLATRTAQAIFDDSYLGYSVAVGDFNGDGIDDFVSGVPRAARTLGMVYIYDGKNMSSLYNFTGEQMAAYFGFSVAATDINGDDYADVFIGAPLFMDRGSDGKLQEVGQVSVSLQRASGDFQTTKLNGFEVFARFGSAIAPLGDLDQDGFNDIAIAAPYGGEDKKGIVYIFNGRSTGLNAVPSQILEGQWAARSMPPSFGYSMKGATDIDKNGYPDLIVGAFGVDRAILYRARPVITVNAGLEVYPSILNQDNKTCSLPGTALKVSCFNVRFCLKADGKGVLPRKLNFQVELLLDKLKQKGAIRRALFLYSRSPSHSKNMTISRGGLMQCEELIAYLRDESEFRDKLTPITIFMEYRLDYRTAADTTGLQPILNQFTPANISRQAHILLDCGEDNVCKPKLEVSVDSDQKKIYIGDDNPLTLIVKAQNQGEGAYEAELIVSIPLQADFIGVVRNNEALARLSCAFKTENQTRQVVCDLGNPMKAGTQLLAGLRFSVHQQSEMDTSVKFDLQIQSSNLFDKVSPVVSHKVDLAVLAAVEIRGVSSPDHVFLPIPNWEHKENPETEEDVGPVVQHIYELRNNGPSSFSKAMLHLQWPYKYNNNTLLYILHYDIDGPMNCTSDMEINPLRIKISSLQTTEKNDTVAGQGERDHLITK
T1 sequence (P06756 891-1048 partner limits assumed): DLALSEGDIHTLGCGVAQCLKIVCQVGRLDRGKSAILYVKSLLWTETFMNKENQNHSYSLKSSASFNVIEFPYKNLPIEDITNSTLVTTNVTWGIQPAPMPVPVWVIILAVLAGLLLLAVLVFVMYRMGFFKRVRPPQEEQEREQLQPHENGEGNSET
T1 sequence (P05106 27-788): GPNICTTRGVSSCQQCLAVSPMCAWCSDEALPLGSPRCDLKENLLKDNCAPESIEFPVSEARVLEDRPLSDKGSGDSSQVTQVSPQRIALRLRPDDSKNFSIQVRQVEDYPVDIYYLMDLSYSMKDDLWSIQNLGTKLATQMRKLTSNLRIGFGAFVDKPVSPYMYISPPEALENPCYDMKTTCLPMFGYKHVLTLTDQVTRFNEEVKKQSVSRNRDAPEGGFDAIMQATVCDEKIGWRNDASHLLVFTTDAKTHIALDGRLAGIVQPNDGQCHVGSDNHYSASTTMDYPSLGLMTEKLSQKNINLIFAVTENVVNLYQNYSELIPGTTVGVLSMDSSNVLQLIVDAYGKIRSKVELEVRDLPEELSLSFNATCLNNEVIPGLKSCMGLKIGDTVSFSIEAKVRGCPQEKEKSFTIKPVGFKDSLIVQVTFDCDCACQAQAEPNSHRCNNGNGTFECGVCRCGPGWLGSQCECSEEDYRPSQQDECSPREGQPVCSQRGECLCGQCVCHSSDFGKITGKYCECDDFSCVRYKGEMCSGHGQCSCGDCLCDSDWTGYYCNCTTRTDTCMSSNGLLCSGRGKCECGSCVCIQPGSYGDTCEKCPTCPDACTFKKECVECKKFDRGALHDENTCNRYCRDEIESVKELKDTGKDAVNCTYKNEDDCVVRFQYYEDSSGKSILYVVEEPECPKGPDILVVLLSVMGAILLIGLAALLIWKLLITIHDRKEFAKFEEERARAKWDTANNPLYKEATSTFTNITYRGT
Method: Washed platelets are prepared as per the primary screening assay, suspended in HBMT containing 1 mM MgCl2 (platelet adhesion to collagen) or 2 mM CaCl2/1 mM MgCl2 (platelet adhesion to fibrinogen) and adjusted to a count of 250×10^9/L. HEK293 cells stably expressing normal human αVβ3 or normal human αIIbβ3 are suspended in HBMT containing either 1 mM MgCl2 (HEK293 cells expressing αVβ3 for adhesion to vitronectin) or 2 mM CaCl2/1 mM MgCl2 (HEK293 cells expressing αIIbβ3 for adhesion to fibrinogen); the cell counts are adjusted to 10^6/mL. Polystyrene 96-well microtiter plates (Nunc) are coated with either fibrinogen (50 μg/mL), vitronectin (5 μg/mL), or collagen (33 μg/mL, rat tail type 1; Becton Dickinson) for 1 hour, and blocked with HBMT for at least 1 hour. Platelets and cells are treated with the compound of Example 27 of the current invention or 2-ethyl-7-(piperazin-1-yl)-5H-[1,3,4]thiadiazolo-[3,2-a]pyrimidin-5-one of U.S. Ser. No. 12/514,286 in the presence or absence of anti-α2β1 mAb 6F1, anti-αIIbβ3 mAb 10E5, anti-αIIbβ3 mAb 10E5+αVβ3 mAb 7E3, αVβ3-specific mAb LM609, or anti-αVβ3+αIIbβ3 mAb 7E3, for 15 minutes at 37° C. before being added to the microtiter wells. After adhering for 1 hour at either 22° C. (platelets) or 37° C. (cells), nonadherent platelets or cells are removed by washing 3 times with HBMT containing the same ion composition as the buffer used for adhesion. […] In other experiments, 8-chambered glass coverslips (Nunc) are coated with collagen (33 μg/mL) for 1 hour at 22° C. Washed platelets are allowed to adhere for 1 hour at 22° C. and the coverslips are stained with the Alexa-488-conjugated β3-specific mAb 7H2. Adherent platelets are imaged using a Zeiss LSM-510 confocal system with Axiovert 200 microscope (Carl Zeiss, Heidelberg, Germany) using a Plan-Apochromat 100/1.4 NA oil DIC objective.

[2] = biological target: T2, αIIbβ3 (Homo sapiens, UniProt P05106+P08514); test: Induction of ligand-induced binding site (LIBS) epitopes, flow cytometry of washed platelets; format: cell-based; conditions: eptifibatide 10 μM = 100%, Example 27 at 100 μM
T2 construct: Washed platelets are prepared in HBMT containing 2 mM CaCl2/1 mM MgCl2; endogenous in cells; host or cells: washed platelets
T2 sequence (P08514 32-887 limits assumed): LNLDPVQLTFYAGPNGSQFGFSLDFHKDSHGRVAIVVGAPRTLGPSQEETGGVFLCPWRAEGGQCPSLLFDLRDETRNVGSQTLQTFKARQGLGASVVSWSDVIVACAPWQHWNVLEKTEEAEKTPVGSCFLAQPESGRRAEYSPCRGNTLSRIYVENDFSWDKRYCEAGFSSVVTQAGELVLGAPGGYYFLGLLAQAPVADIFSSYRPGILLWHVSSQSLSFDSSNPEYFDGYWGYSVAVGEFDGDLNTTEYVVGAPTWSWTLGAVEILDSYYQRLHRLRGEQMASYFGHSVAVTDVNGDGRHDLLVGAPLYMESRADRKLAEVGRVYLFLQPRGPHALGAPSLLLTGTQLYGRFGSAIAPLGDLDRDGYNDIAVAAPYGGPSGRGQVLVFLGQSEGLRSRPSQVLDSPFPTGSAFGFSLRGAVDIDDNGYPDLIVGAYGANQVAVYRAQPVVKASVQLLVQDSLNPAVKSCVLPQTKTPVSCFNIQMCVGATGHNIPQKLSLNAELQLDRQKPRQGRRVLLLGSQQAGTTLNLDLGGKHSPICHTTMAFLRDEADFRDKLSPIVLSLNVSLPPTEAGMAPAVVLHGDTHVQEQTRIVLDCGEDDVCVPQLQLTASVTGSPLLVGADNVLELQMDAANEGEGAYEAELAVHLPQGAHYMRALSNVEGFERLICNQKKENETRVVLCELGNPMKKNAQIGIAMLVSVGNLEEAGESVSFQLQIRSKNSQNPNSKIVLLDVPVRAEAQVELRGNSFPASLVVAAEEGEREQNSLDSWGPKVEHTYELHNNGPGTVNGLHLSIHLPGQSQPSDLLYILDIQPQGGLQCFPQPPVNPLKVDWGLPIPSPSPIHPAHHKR
T2 sequence (P08514 891-1039 partner limits assumed): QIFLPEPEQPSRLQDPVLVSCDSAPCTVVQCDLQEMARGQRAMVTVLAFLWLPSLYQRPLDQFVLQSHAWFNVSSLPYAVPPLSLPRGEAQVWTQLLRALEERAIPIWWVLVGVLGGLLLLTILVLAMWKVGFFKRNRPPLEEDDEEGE
T2 sequence (P05106 27-788): as the sequence (P05106 27-788) above
Method: Washed platelets are prepared in HBMT containing 2 mM CaCl2/1 mM MgCl2. […] Fluorescently labeled monoclonal antibodies (PMI-1, LIBS-1, AP5, or 10E5; Alexa-488 conjugated; Invitrogen) are then added (20 μL, final concentration: 5 μg/mL) and incubated for 30 minutes at 22° C. in the dark, after which samples are diluted 1:10 in HBMT with CaCl2/MgCl2 for analysis by flow cytometry (FACSCalibur; Becton Dickinson, Franklin Lakes, N.J.). Antibody binding is reported as the geometric mean fluorescence intensity; nonspecific binding is determined by adding a 50-fold excess of unlabeled antibody before adding the labeled antibody. The net normalized fluorescence intensity in the presence of eptifibatide (10 μM, 30 min incubation at 22° C.) is assigned the value of 100%

[3] = biological target: T3, HEK293 cells stably expressing normal human αIIbβ3 (Homo sapiens, UniProt P05106+P08514); test: αIIbβ3-mediated cell adhesion to fibrinogen; format: cell-based; conditions: same concentration as αVβ3 experiments (100 μM), n=4
T3 construct: expressed in transfected cells; host or cells: HEK293
T3 sequence (P08514 32-887 limits assumed): as the sequence (P08514 32-887 limits assumed) above
T3 sequence (P08514 891-1039 partner limits assumed): as the sequence (P08514 891-1039 partner limits assumed) above
T3 sequence (P05106 27-788): as the sequence (P05106 27-788) above
Method: Washed platelets are prepared as per the primary screening assay, suspended in HBMT containing 1 mM MgCl2 (platelet adhesion to collagen) or 2 mM CaCl2/1 mM MgCl2 (platelet adhesion to fibrinogen) and adjusted to a count of 250×10^9/L. HEK293 cells stably expressing normal human αVβ3 or normal human αIIbβ3 are suspended in HBMT containing either 1 mM MgCl2 (HEK293 cells expressing αVβ3 for adhesion to vitronectin) or 2 mM CaCl2/1 mM MgCl2 (HEK293 cells expressing αIIbβ3 for adhesion to fibrinogen); the cell counts are adjusted to 10^6/mL. Polystyrene 96-well microtiter plates (Nunc) are coated with either fibrinogen (50 μg/mL), vitronectin (5 μg/mL), or collagen (33 μg/mL, rat tail type 1; Becton Dickinson) for 1 hour, and blocked with HBMT for at least 1 hour. Platelets and cells are treated with the compound of Example 27 of the current invention or 2-ethyl-7-(piperazin-1-yl)-5H-[1,3,4]thiadiazolo-[3,2-a]pyrimidin-5-one of U.S. Ser. No. 12/514,286 in the presence or absence of anti-α2β1 mAb 6F1, anti-αIIbβ3 mAb 10E5, anti-αIIbβ3 mAb 10E5+αVβ3 mAb 7E3, αVβ3-specific mAb LM609, or anti-αVβ3+αIIbβ3 mAb 7E3, for 15 minutes at 37° C. before being added to the microtiter wells. After adhering for 1 hour at either 22° C. (platelets) or 37° C. […]

[4] = biological target: T4, purified αIIbβ3 (Homo sapiens, UniProt P05106+P08514); test: Extension of purified αIIbβ3 in nanodiscs by negative staining electron microscopy; conditions: for shift of nanodisc-integrin length (NIL) frequency distribution: 1 hour at room temperature, at highest doses majority of NIL values 18 to 23 nm
T4 construct: αIIbβ3 is purified from outdated single donor platelet concentrates obtained from the New York Blood Center; tissue New York Blood Center; host or cells: outdated single donor platelet concentrates
T4 sequence (P08514 32-887 limits assumed): as the sequence (P08514 32-887 limits assumed) above
T4 sequence (P08514 891-1039 partner limits assumed): as the sequence (P08514 891-1039 partner limits assumed) above
T4 sequence (P05106 27-788): as the sequence (P05106 27-788) above
Method: In brief, the His-tagged membrane scaffold protein is prepared as a recombinant protein in E. coli and purified by Nickel affinity chromatography and anion exchange chromatography. Final assembly consists of solubilizing an equimolar mixture of 1,2-dimyristoyl-sn-glycero-3-phosphocholine and 1,2-dimyristoyl-sn-glycero-3-phospho-(1′-rac-glycerol) in octylglucoside and cholate and then adding the purified αIIbβ3. The detergents are removed with macroporous polymeric beads (Bio-Bead SM-2) and then the αIIbβ3 nanodiscs are separated from the empty nanodiscs by gel filtration.
αIIbβ3 nanodiscs are treated with eptifibatide, tirofiban, 2-ethyl-7-(piperazin-1-yl)-5H-[1,3,4]thiadiazolo-[3,2-a]pyrimidin-5-one of U.S. Ser. No. 12/514,286, or the compound of Example 27 of the current invention for 1 hour at room temperature at concentrations up to 100 μM for 2-ethyl-7-(piperazin-1-yl)-5H-[1,3,4]thiadiazolo-[3,2-a]pyrimidin-5-one (a compound claimed in U.S. Ser. No. 12/514,286) and at concentrations up to 10 μM for 2-amino-N-(3-(5-oxo-7-(piperazin-1-yl)-5H-[1,3,4]thiadiazolo[3,2-a]pyrimidin-2-yl)phenyl)acetamide of Example 27. Samples are loaded onto carbon-coated copper grids that are glow-discharged by a carbon coating unit (Edwards; Crowley, UK), and then stained with 2% uranyl acetate, followed by drying. Imaging of αIIbβ3 nanodiscs is performed using a JOEL JEM 100CX transmission electron microscope (Jeol Ltd; Tokyo, Japan) at 80 kV and magnifications of 33,000× and 50,000×. Individual nanodiscs containing αIIbβ3 are manually selected for analysis using Image J (NIH, Bethesda, Md.). The distance from the bottom of the nanodisc to the height of the αIIbβ3 complex (nanodisc-integrin length; NIL) is measured as an indicator of integrin extension. The frequency distribution of NIL values is then analyzed for untreated αIIbβ3 nanodiscs and αIIbβ3 nanodiscs in the presence of different compounds.

[5] = test system: washed platelets; test: Effect of Mg2+ on washed platelet aggregation induced by thrombin receptor activating peptide (SFLLRN); format: cell-based, human; conditions: compound at 100 μM; SFLLRN 10 μM
Method: Washed platelets are resuspended in buffer containing fibrinogen (200 μg/ml) and 1 mM […] in combination with either 1 mM or 20 mM Mg^2+. Aggregation is induced by adding a thrombin receptor activating peptide (SFLLRN) at 10 μM.

[6] = test system: platelets; test: Platelet adhesion assay: calcein-labeled platelets on fibrinogen-coated wells; format: cell-based; conditions: Homo sapiens, mean±SD
Method: Thirty microliters of human fibrinogen (50 μg/mL) in Tris/saline (100 mM NaCl, 50 mM Tris/HCl, pH 7.4; American Diagnostica, Stamford, Conn.) are added to black, clear-bottom, untreated polystyrene, nonsterile 384-well microtiter plate wells (Corning no. 3711; Acton, Mass.). […] An additional wash is performed using HBMT with 1 mM MgCl2 and 2 mM CaCl2. Calcein-labeled platelets (final concentration 1×10^11/L) are treated with selected Compounds of the Invention (final concentration of 100 μM, 30 μM, 10 μM or 1 μM) at 22° C. for 20 minutes. Thirty microliters of platelets are then added to the wells. After 1 hour of adhesion, wells are washed 3 times with HBMT-1 mM MgCl2/2 mM CaCl2 and the plates are read by a fluorescent microtiter plate reader (Envision; Perkin Elmer) to detect calcein fluorescence (490 nm excitation and 515 nm emission). Negative controls consist of wells containing platelets without compounds of the invention.

[7] = test system: platelets; test: Platelet aggregation assay: ADP-induced, platelet-rich plasma; format: cell-based, human; conditions: citrate anticoagulant, tested twice, read-out: IC50, ADP-induced platelet aggregation of citrated PRP
Method: […] After 30 seconds in the aggregometer (Kowa AF-10E; Tokyo, Japan) at 37° C. with stirring, ADP (5-20 μM) is added to induce aggregation and the light transmittance is measured for 8 minutes. The initial slopes of aggregation in the presence of different concentrations of the Compound being tested are used to generate an IC50.

[8] = test system: washed platelets; test: Effect of Mg2+ concentration on platelet adhesion to fibrinogen; format: cell-based, human; conditions: 1, 20, 50 mM Mg2+
Method: Washed platelets in buffers containing 1 mM Ca^2+ plus 1 mM, 20 mM, or 50 mM Mg^2+ are added to wells pre-coated with fibrinogen (50 μg/ml) for 60 min at 22° C. After washing, adherent platelets are detected by acid phosphatase activity. Results are expressed as mean±SD (n=3 for the compound of Example 27 of the current invention and 2-ethyl-7-(piperazin-1-yl)-5H-[1,3,4]thiadiazolo-[3,2-a]pyrimidin-5-one (a compound disclosed and claimed in U.S. Ser. No. 12/514,286); n=2 for tirofiban).

**Q.** `NCC(=O)Nc1cccc(-c2nn3c(=O)cc(N4CCNCC4)nc3s2)c1` [2-amino-N-(3-(5-oxo-7-(piperazin-1-yl)-5H-[1,3,4]thiadiazolo[3,2-a]pyrimidin-2-yl)phenyl)acetamide] was tested. Which inhibition at 10 µM ([1]; 10 μM) did it give?
**A.** 6 ± 15%

**Q.** Which results are given for `CCc1nn2c(=O)cc(N3CCNCC3)nc2s1` [Example 1, 2-ethyl-7-(piperazin-1-yl)-5H-[1,3,4]thiadiazolo[3,2-a]pyrimidin-5-one]?
**A.** AP5 binding, % of the amount in the presence of eptifibatide [2]: 10±4% and 10%; LIBS1 binding after 30 min, % of the amount in the presence of eptifibatide [2]: 18±2%; PMI-1 binding, % of the amount bound by platelets treated with eptifibatide [2]: 73±9%; inhibition at 100 µM [3]: 55 ± 5%; shift of nanodisc-integrin length (NIL) values / receptor extension ([4]; concentrations up to 100 μM): do not induce receptor extension; effect of Mg2+ on the inhibition of SFLLRN-induced platelet aggregation [5]: much less evident; inhibition at 100 µM ([1]; 100 μM): 5 ± 7%; inhibition at 10 µM [6]: 22 ± 8%; inhibition at 30 µM ([6]; 30 μM, 5 separate experiments): 38 ± 10%; inhibition at 100 µM ([6]; 100 μM, 5 separate experiments): 70 ± 15%; IC50 ([7]; Homo sapiens, Platelet): 12 µM; IC50 [7]: 18 µM

**Q.** For `N=C(N)NCCCC[C@@H]1NC(=O)CCSSC[C@@H](C(N)=O)NC(=O)[C@@H]2CCCN2C(=O)[C@H](Cc2c[nH]c3ccccc23)NC(=O)[C@H](CC(=O)O)NC(=O)CNC1=O` [eptifibatide, reference compound] ([Mpa][hArg]GDWPC-NH2; disulfide 1-7), which “shift of nanodisc-integrin length (NIL) frequency distribution” value [4] is on record?
**A.** shift the distribution in a dose-dependent manner

**Q.** Which results are given for `CCCCS(=O)(=O)N[C@@H](Cc1ccc(OCCCCC2CCNCC2)cc1)C(=O)O` [tirofiban, reference compound]?
**A.** increase in IC50 at higher Mg2+ concentrations comparable to that of Example 27 [8]: nor tirofiban shows a comparable increase in IC50; shift of nanodisc-integrin length (NIL) frequency distribution [4]: shift the distribution in a dose-dependent manner; inhibition at 10 µM [6]: 87 ± 9%
